Data as given in ChEMBL document CHEMBL1201862, “PubChem BioAssay data set” (2004).
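Following 48 hours of exposure in 96-well plates, responses at five concentrations were used to interpolate endpoints linearly. Abbreviation: GI50, concentration required for 50% inhibition of growth.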 The source made the active and inactive calls. Rule as the data show it: active = GI50 up to about 1.1 µM and inactive = higher.

Columns and labels:
Experiment in all cases: NCI-60 cell line screen, 48 h
Malme-3M = system: Malme-3M
DU-145 = system: DU-145
SW-620 = system: SW-620
A549 = system: A549
SN12C = system: SN12C
SK-MEL-28 = system: SK-MEL-28
NCI-H460 = system: NCI-H460
HOP-92 = system: HOP-92
NCI-H23 = system: NCI-H23
IGROV-1 = system: IGROV-1
UACC-62 = system: UACC-62
A498 = system: A498
SF-295 = system: SF-295
SF-539 = system: SF-539
MDA-MB-435 = system: MDA-MB-435
SNB-75 = system: SNB-75
SR = system: SR
CCRF-CEM = system: CCRF-CEM
OVCAR-4 = system: OVCAR-4
PC-3 = system: PC-3

Measured: GI50

COc1cc2c(cc1OCCCOS(C)(=O)=O)N=C[C@@H]1CCCN1C2=O
inactive: Malme-3M > 100 µM | DU-145 > 100 µM | SW-620 > 100 µM | A549 > 100 µM | SN12C > 100 µM | SK-MEL-28 > 100 µM | NCI-H460 > 100 µM | HOP-92 > 100 µM | NCI-H23 > 100 µM | IGROV-1 > 100 µM | UACC-62 > 100 µM | A498 > 100 µM | SF-295 > 100 µM | SF-539 > 100 µM | MDA-MB-435 > 100 µM

Oc1ccc2ccccc2c1/N=N/c1ccc(F)cc1
inactive: Malme-3M > 100 µM | SW-620 > 100 µM | A549 > 100 µM | SNB-75 > 100 µM | SN12C 42.7 µM | SR > 100 µM | SK-MEL-28 > 100 µM | NCI-H460 > 100 µM | HOP-92 > 100 µM | NCI-H23 > 100 µM | CCRF-CEM > 100 µM | OVCAR-4 > 100 µM | IGROV-1 > 100 µM | UACC-62 > 100 µM | A498 > 100 µM | SF-295 > 100 µM | SF-539 > 100 µM

CC(C)(CO)N1CCN(C(S)=Nc2ccccc2)CC1
inactive: PC-3 > 100 µM | Malme-3M > 100 µM | SW-620 > 100 µM | A549 > 100 µM | SNB-75 > 100 µM | SN12C > 100 µM | SK-MEL-28 > 100 µM | NCI-H460 > 100 µM | HOP-92 > 100 µM | NCI-H23 > 100 µM | OVCAR-4 > 100 µM | IGROV-1 > 100 µM | UACC-62 > 100 µM | A498 > 100 µM | SF-295 > 100 µM | SF-539 > 100 µM | MDA-MB-435 > 100 µM

N#Cc1c(O)c2ccccc2[nH]c1=O
inactive: PC-3 > 100 µM | Malme-3M > 100 µM | DU-145 > 100 µM | SW-620 > 100 µM | A549 > 100 µM | SNB-75 > 100 µM | SN12C > 100 µM | SK-MEL-28 > 100 µM | HOP-92 > 100 µM | NCI-H23 > 100 µM | CCRF-CEM > 100 µM | OVCAR-4 > 100 µM | IGROV-1 > 100 µM | UACC-62 > 100 µM | A498 > 100 µM | SF-295 > 100 µM | SF-539 > 100 µM | MDA-MB-435 > 100 µM

COc1ccc(/N=N/c2c(O)ccc3ccccc23)cc1
inactive: PC-3 28.2 µM | Malme-3M 14.1 µM | SW-620 86.1 µM | A549 17.9 µM | SNB-75 16.4 µM | SN12C > 100 µM | SR 14.8 µM | SK-MEL-28 > 100 µM | HOP-92 19.6 µM | NCI-H23 32.9 µM | CCRF-CEM > 100 µM | OVCAR-4 15.4 µM | IGROV-1 5.47 µM | UACC-62 15.6 µM | SF-295 12.9 µM | MDA-MB-435 > 100 µM

CC(=O)CC1CCC(=O)CCC(=O)OC(CC(C)=O)CCC(=O)CCC(=O)O1 (centres undefined)
inactive: PC-3 > 100 µM | Malme-3M > 100 µM | DU-145 > 100 µM | SW-620 > 100 µM | A549 > 100 µM | SNB-75 > 100 µM | SN12C > 100 µM | SK-MEL-28 > 100 µM | NCI-H460 > 100 µM | HOP-92 > 100 µM | NCI-H23 > 100 µM | CCRF-CEM > 100 µM | OVCAR-4 > 100 µM | IGROV-1 > 100 µM | UACC-62 > 100 µM | SF-295 > 100 µM | SF-539 > 100 µM | MDA-MB-435 > 100 µM

CCOP(=O)(OCC)OC(C#N)c1ccc(-c2ccccc2)cc1 (centres undefined)
inactive: Malme-3M 19.6 µM | SW-620 13.7 µM | A549 18.4 µM | SNB-75 27.7 µM | SN12C 19 µM | SR 30 µM | SK-MEL-28 31.4 µM | NCI-H460 20.5 µM | HOP-92 14.4 µM | NCI-H23 27 µM | CCRF-CEM 22.4 µM | OVCAR-4 21.1 µM | IGROV-1 36.3 µM | UACC-62 13.9 µM | A498 24.2 µM | SF-295 70.6 µM | SF-539 20.8 µM

NC(=S)NS(=O)(=O)c1ccc(Cl)cc1
inactive: PC-3 > 100 µM | Malme-3M > 100 µM | DU-145 > 100 µM | SW-620 > 100 µM | A549 > 100 µM | SNB-75 > 100 µM | SN12C > 100 µM | SK-MEL-28 > 100 µM | NCI-H460 > 100 µM | NCI-H23 > 100 µM | CCRF-CEM > 100 µM | OVCAR-4 > 100 µM | IGROV-1 > 100 µM | UACC-62 > 100 µM | SF-295 > 100 µM | SF-539 > 100 µM | MDA-MB-435 > 100 µM

CC(=O)OC1CC2(c3ccccc3)C(=O)c3ccccc3N2O1 (centres undefined)
inactive: Malme-3M > 100 µM | SW-620 > 100 µM | A549 > 100 µM | SNB-75 > 100 µM | SN12C > 100 µM | SR > 100 µM | SK-MEL-28 > 100 µM | HOP-92 65.8 µM | NCI-H23 > 100 µM | CCRF-CEM > 100 µM | OVCAR-4 > 100 µM | IGROV-1 > 100 µM | UACC-62 > 100 µM | A498 > 100 µM | SF-295 > 100 µM | SF-539 > 100 µM

c1ccc(CNc2nncc3[nH]cnc23)cc1
inactive: PC-3 > 100 µM | Malme-3M 59.6 µM | SW-620 > 100 µM | A549 > 100 µM | SNB-75 > 100 µM | SN12C > 100 µM | SR > 100 µM | SK-MEL-28 > 100 µM | HOP-92 69.8 µM | NCI-H23 > 100 µM | CCRF-CEM > 100 µM | OVCAR-4 > 100 µM | IGROV-1 > 100 µM | UACC-62 > 100 µM | A498 > 100 µM | SF-295 > 100 µM | SF-539 > 100 µM | MDA-MB-435 > 100 µM

CC(=O)NCC1OC2COC(c3ccccc3)OC2C2N=C(c3ccccc3)OC12 (centres undefined)
inactive: PC-3 24.9 µM | Malme-3M 58.7 µM | DU-145 > 100 µM | SW-620 80.9 µM | A549 37.8 µM | SNB-75 38.2 µM | SN12C > 100 µM | SK-MEL-28 59.6 µM | NCI-H460 60.7 µM | HOP-92 61.1 µM | NCI-H23 > 100 µM | CCRF-CEM 35.4 µM | OVCAR-4 85.9 µM | UACC-62 45.7 µM | A498 37.4 µM | SF-295 35.3 µM | SF-539 > 100 µM | MDA-MB-435 85.3 µM

N#Cc1cc([N+](=O)[O-])ccc1NC(=O)C(=O)C(C(=O)/C=C/c1ccccc1)C1OC(=O)c2ccccc21 (centres undefined)
inactive: Malme-3M > 100 µM | SW-620 > 100 µM | A549 > 100 µM | SNB-75 > 100 µM | SN12C > 100 µM | SR 1.69 µM | SK-MEL-28 > 100 µM | NCI-H460 > 100 µM | HOP-92 > 100 µM | NCI-H23 > 100 µM | CCRF-CEM 8.65 µM | OVCAR-4 > 100 µM | IGROV-1 > 100 µM | UACC-62 > 100 µM | A498 > 100 µM | SF-295 > 100 µM | SF-539 > 100 µM

CCCCC1C=Cn2c(=O)oc3c(OC(C)C)c(OC(C)C)c(O)c1c32 (centres undefined)
inactive: PC-3 38.2 µM | DU-145 14.8 µM | SW-620 13.9 µM | A549 17.2 µM | SNB-75 13 µM | SN12C 20.5 µM | SK-MEL-28 13.6 µM | NCI-H460 15.4 µM | HOP-92 14.3 µM | NCI-H23 12.2 µM | CCRF-CEM 8.49 µM | OVCAR-4 21.5 µM | UACC-62 13.4 µM | A498 17.1 µM | SF-295 18.5 µM | SF-539 23.6 µM | MDA-MB-435 12.5 µM

C/C(=N/NC(=O)C[N+](C)(C)C)C(CN(C)C)C(=O)Nc1ccccc1 (centres undefined)
inactive: Malme-3M > 100 µM | SW-620 > 100 µM | A549 > 100 µM | SNB-75 > 100 µM | SN12C > 100 µM | SR > 100 µM | SK-MEL-28 > 100 µM | NCI-H460 > 100 µM | NCI-H23 > 100 µM | CCRF-CEM > 100 µM | OVCAR-4 > 100 µM | IGROV-1 > 100 µM | UACC-62 > 100 µM | A498 > 100 µM | SF-295 > 100 µM | SF-539 > 100 µM

COCCN1C2=CCCCC2=Nc2c1nc(N)[nH]c2=O
inactive: Malme-3M > 100 µM | A549 > 100 µM | SNB-75 > 100 µM | SN12C > 100 µM | SR > 100 µM | SK-MEL-28 > 100 µM | NCI-H460 > 100 µM | HOP-92 > 100 µM | NCI-H23 > 100 µM | CCRF-CEM > 100 µM | IGROV-1 > 100 µM | UACC-62 > 100 µM | A498 > 100 µM | SF-295 > 100 µM | SF-539 > 100 µM

CC1(C)COC(c2cccnc2/C=N/O)=N1
inactive: Malme-3M > 100 µM | SW-620 67.8 µM | A549 > 100 µM | SNB-75 > 100 µM | SN12C > 100 µM | SR > 100 µM | SK-MEL-28 > 100 µM | NCI-H460 > 100 µM | HOP-92 > 100 µM | NCI-H23 > 100 µM | CCRF-CEM > 100 µM | OVCAR-4 > 100 µM | IGROV-1 > 100 µM | UACC-62 > 100 µM | A498 > 100 µM | SF-295 > 100 µM | SF-539 > 100 µM
